According to patent publication US8927717B1, “Thiochromeno[2,3-c]quinolin-12-one derivatives, preparation method and application thereof” (National Defense Medical Center, priority 2014, dated 2015):

Columns and labels:
[1] = tested on: MALME-3M; type: cell-based; settings: 10^−5 molar
[2] = tested on: UACC-257; type: cell-based
[3] = tested on: 786-0; type: cell-based
[4] = tested on: U251; type: cell-based
[5] = tested on: CAKI-1; type: cell-based
[6] = tested on: A498; type: cell-based
[7] = tested on: SK-MEL-28; type: cell-based
[8] = tested on: SF-268; type: cell-based
[9] = tested on: SK-MEL-2; type: cell-based
[10] = tested on: IGROV1; type: cell-based
[11] = tested on: HOP-92; type: cell-based; settings: 10^−5 molar
[12] = tested on: HS 578T; type: cell-based
[13] = tested on: OVCAR-4; type: cell-based
[14] = tested on: SF-539; type: cell-based
[15] = target: T1, TOP I (Topoisomerase I) (Homo sapiens, UniProt P11387); experiment: TOP I mediated supercoiled DNA relaxation assay; type: biochemical; settings: primary assay at 25 and/or 50 μM
T1 construct: purchased TopoGEN TG2005H
T1 sequence (P11387 1-765): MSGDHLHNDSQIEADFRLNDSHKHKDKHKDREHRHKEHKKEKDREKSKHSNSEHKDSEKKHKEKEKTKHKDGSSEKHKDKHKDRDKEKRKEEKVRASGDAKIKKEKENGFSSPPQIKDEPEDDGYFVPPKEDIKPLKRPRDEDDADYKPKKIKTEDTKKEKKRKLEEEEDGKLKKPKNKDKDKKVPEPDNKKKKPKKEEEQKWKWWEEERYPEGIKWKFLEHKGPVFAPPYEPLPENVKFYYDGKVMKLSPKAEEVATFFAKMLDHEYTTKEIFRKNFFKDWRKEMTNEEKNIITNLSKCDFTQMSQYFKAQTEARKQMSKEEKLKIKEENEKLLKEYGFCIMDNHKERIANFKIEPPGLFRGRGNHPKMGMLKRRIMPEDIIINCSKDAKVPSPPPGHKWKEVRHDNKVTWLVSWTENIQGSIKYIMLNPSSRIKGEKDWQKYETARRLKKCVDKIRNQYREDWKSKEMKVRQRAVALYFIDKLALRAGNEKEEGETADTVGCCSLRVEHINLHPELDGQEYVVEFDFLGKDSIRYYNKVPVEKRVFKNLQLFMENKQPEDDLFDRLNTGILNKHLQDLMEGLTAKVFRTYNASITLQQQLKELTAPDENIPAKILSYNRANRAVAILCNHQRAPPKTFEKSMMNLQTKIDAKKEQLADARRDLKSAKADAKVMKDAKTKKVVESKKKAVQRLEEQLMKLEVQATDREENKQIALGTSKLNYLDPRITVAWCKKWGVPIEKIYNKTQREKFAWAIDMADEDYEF
Protocol: According to the cell cytotoxicity, compounds 5, 7, 8, 16, 19, N2, N7, N8, N9, N14-N19, and N25 were also selected for primary TOP I and II activities assays at 25 and/or 50 μM (FIG. 2-4).

[16] = tested on: MDA-MB-486; type: cell-based
[17] = tested on: NCI-H226; type: cell-based
[18] = tested on: HCC-2998; type: cell-based
[19] = tested on: RPMI-8226; type: cell-based
[20] = tested on: SF-295; type: cell-based
[21] = tested on: OVCAR-3; type: cell-based
[22] = Melanoma, 10^−5 molar, 48 hours, SRB
[23] = Renal cancer, 10^−5 molar, 48 hours, SRB
[24] = CNS cancer, 10^−5 molar, 48 hours, SRB
[25] = Homo sapiens, U-251, U251, five dose
[26] = Homo sapiens, SK-MEL-28, five dose
[27] = Homo sapiens, SK-Mel-2, five dose
[28] = Ovarian cancer, 10^−5 molar, 48 hours, SRB
[29] = Breast cancer, 10^−5 molar, 48 hours, SRB
[30] = Homo sapiens, SF-539, five dose
[31] = Homo sapiens, NCI-H226, five dose
[32] = Homo sapiens, HCC-2998, five dose
[33] = Homo sapiens, SF-295, five dose

`CN(C)CCCNc1nc2ccccc2c2c(=O)c3cc(Cl)ccc3sc12` [Compound N17, 10-Chloro-6-((3-(dimethylamino)propyl)amino)-12H-thiochromeno[2,3-c]quinolin-12-one] showed a Growth percent ([1]; MALME-3M) of 100.91%, a melting point of 194 to 195 °C and a Growth percent ([2]; UACC-257, 10^−5 molar) of 107.40%. It also gave a Growth percent ([3]; 786-0, 10^−5 molar) of 93.30%, a Growth percent ([4]; U251, 10^−5 molar) of 84.19% and a Growth percent ([5]; CAKI-1, 10^−5 molar) of 84.31%. For the same compound, the Growth percent ([6]; A498, 10^−5 molar) was 78.57%, the Growth percent ([7]; SK-MEL-28, 10^−5 molar) was 99.63% and the Growth percent ([8]; SF-268, 10^−5 molar) was 87.67%. The Growth percent ([9]; SK-Mel-2, 10^−5 molar) was 106.47%, the Growth percent ([10]; IGROV1, 10^−5 molar) was 87.27% and the Growth percent ([11]; HOP-92) was 40.76%. The Growth percent ([12]; HS 578T, 10^−5 molar) was 87.67%, the Growth percent ([13]; OVCAR-4, 10^−5 molar) was 94.63% and the Growth percent ([14]; SF-539, 10^−5 molar) was 87.85%. The “inhibitory effect in TOP I activity assay compared with CPT” value [15] was “more potent inhibitory effects than CPT”, the Growth percent ([16]; MDA-MB-486, 10^−5 molar) was 43.26% and the Growth percent ([17]; NCI-H226, 10^−5 molar) was 81.01%. The Growth percent ([18]; HCC-2998, 10^−5 molar) was 108.36%, the Growth percent ([19]; RPMI-8226, 10^−5 molar) was 78.66% and the Growth percent ([20]; SF-295, 10^−5 molar) was 95.14%.
With `CCNc1nc2ccccc2c2c(=O)c3cc(Cl)ccc3sc12` [Compound N2, 10-Chloro-6-ethylamino-12H-thiochromeno[2,3-c]quinolin-12-one] the “Growth percent MALME-3M” value ([1]; Melanoma, 48 hours, SRB) was 77.31%, the GI50 ([2]; Homo sapiens, UACC-257, five dose) was over 100 µM and the CC50 ([2]; Homo sapiens, UACC-257, five dose, read-out: LC50 (the source's name)) was over 100 µM. The “Growth percent UACC-257” value [2, 22] was 75.21%, the TGI ([2]; UACC-257, five dose) was over 100 µM and the TGI ([3]; 786-0, five dose) was 33.8 µM. For the same compound, the GI50 ([3]; Homo sapiens, 786-0, five dose) was 10.5 µM, the CC50 ([3]; Homo sapiens, 786-0, five dose, read-out: LC50 (the source's name)) was over 100 µM and the “Growth percent 786-0” value [3, 23] was 23.87%. For the same compound, the “Growth percent U251” value [4, 24] was 76.58%, the GI50 [4, 25] was 16.9 µM and the LC50 [4, 25] was over 100 µM. For the same compound, the TGI ([4]; U251, five dose) was 67.90 µM, the TGI ([5]; CAKI-1, five dose) was over 100 µM and the GI50 ([5]; Homo sapiens, CAKI-1, five dose) was 26.4 µM. The CC50 ([5]; Homo sapiens, CAKI-1, five dose, read-out: LC50 (the source's name)) was over 100 µM, the “Growth percent CAKI-1” value [5, 23] was 72.44% and the TGI ([6]; A498, five dose) was 91.3 µM. For the same compound, the GI50 ([6]; Homo sapiens, A498, five dose) was 15.3 µM, the CC50 ([6]; Homo sapiens, A498, five dose, read-out: LC50 (the source's name)) was over 100 µM and the “Growth percent A498” value [6, 23] was 61.02%. The GI50 [7, 26] was over 100 µM, the LC50 [7, 26] was over 100 µM and the “Growth percent SK-MEL-28” value [7, 22] was 93.07%. For the same compound, the TGI ([7]; SK-MEL-28, five dose) was over 100 µM, the “Growth percent SF-268” value [8, 24] was 78.23% and the GI50 ([8]; Homo sapiens, SF-268, five dose) was 22.1 µM. It also gave a CC50 ([8]; Homo sapiens, SF-268, five dose, read-out: LC50 (the source's name)) of over 100 µM, a TGI ([8]; SF-268, five dose) of over 100 µM and a GI50 [9, 27] of 16.3 µM. For the same compound, the LC50 [9, 27] was over 100 µM, the “Growth percent SK-MEL-2” value [9, 22] was 76.15% and the TGI ([9]; SK-Mel-2, five dose) was 43.2 µM. It also gave a GI50 ([10]; Homo sapiens, IGROV-1, IGROV1, five dose) of 11.9 µM, a CC50 ([10]; Homo sapiens, IGROV-1, IGROV1, five dose, read-out: LC50 (the source's name)) of over 100 µM and a TGI ([10]; IGROV1, five dose) of 54.40 µM. For the same compound, the “Growth percent IGROV1” value [10, 28] was 59.26%, the “Growth percent HOP-92” value ([11]; Non-small cell lung cancer, 48 hours, SRB) was −0.07% and the “Growth percent HS 578T” value [12, 29] was 36.37%. For the same compound, the TGI ([12]; HS 578T, five dose) was 65.5 µM, the GI50 ([12]; Homo sapiens, HS 578T, five dose) was 9.64 µM and the CC50 ([12]; Homo sapiens, HS 578T, five dose, read-out: LC50 (the source's name)) was over 100 µM. For the same compound, the GI50 ([13]; Homo sapiens, OVCAR-4, five dose) was over 100 µM, the CC50 ([13]; Homo sapiens, OVCAR-4, five dose, read-out: LC50 (the source's name)) was over 100 µM and the TGI ([13]; OVCAR-4, five dose) was over 100 µM. The “Growth percent OVCAR-4” value [13, 28] was 23.19%, the “Growth percent SF-539” value [14, 24] was 60.35% and the GI50 [14, 30] was 10.1 µM. It also gave an LC50 [14, 30] of over 100 µM, a TGI ([14]; SF-539, five dose) of 58.50 µM and a GI50 ([16]; 60 cell, MDA-MB-486, five dose) of 0.04 µM. The CC50 ([16]; 60 cell, MDA-MB-486, five dose, read-out: LC50 (the source's name)) was over 100 µM, the “Growth percent MDA-MB-486” value [16, 29] was 26.29% and the TGI ([16]; MDA-MB-486, five dose) was over 100 µM. It also gave a GI50 [17, 31] of 33.2 µM, an LC50 (concentration giving 50% net cell kill) [17, 31] of over 100 µM and a TGI ([17]; NCI-H226, five dose) of over 100 µM. The “Growth percent NCI-H226” value ([17]; Non-small cell lung cancer, 10^−5 molar, 48 hours, SRB) was 41.31%, the GI50 ([21]; Homo sapiens, OVCAR-3, five dose) was 52.4 µM and the CC50 ([21]; Homo sapiens, OVCAR-3, five dose, read-out: LC50 (the source's name)) was over 100 µM. For the same compound, the TGI ([21]; OVCAR-3, five dose) was over 100 µM, the “Growth percent OVCAR-3” value [21, 28] was 76.51% and the “Growth percent HCC-2998” value ([18]; Colon cancer, 10^−5 molar, 48 hours, SRB) was 98.02%. It also gave a TGI ([18]; HCC-2998, five dose) of over 100 µM, a GI50 [18, 32] of over 100 µM and an LC50 [18, 32] of over 100 µM. The GI50 ([19]; Homo sapiens, RPMI-8226, five dose) was over 100 µM, the CC50 ([19]; Homo sapiens, RPMI-8226, five dose, read-out: LC50 (the source's name)) was over 100 µM and the “Growth percent RPMI-8226” value ([19]; Leukemia, 10^−5 molar, 48 hours, SRB) was 79.66%. The TGI ([19]; RPMI-8226, five dose) was over 100 µM, the “Growth percent SF-295” value [20, 24] was 69.49% and the GI50 [20, 33] was 12.2 µM. The LC50 [20, 33] was over 100 µM and the TGI ([20]; SF-295, five dose) was 35.20 µM.
